Assay results as given in article PMC9219006 (Plant Direct, 2022).
Like-named read-outs stand apart in the source and are kept apart here.

System: ASAT1H (SqASAT1H; c39979_g2_i1)
Assay: LC-MS/MS product formation, Michaelis-Menten fit
Format: biochemical, Solanum quitoense
Settings: read-out: apparent Km, 30 °C, pH 6 (default), 20 min

Row | Km (nC10-CoA saturating) [µM] | Km (myo-inositol saturating) [µM] | SMILES
1 | 4400 ± 1100 |  | O[C@H]1[C@H](O)[C@@H](O)[C@H](O)[C@@H](O)[C@H]1O [myo-inositol]
2 |  | 9.5 ± 2.4 | CCCCCCCCCC(=O)SCCNC(=O)CCNC(=O)[C@H](O)C(C)(C)COP(=O)(O)OP(=O)(O)OC[C@H]1O[C@@H](n2cnc3c(N)ncnc32)[C@H](O)[C@@H]1OP(=O)(O)O [nC10-CoA]
3 |  | 16.6 ± 6.6 | CCCCCCCCCCCC(=O)SCCNC(=O)CCNC(=O)[C@H](O)C(C)(C)COP(=O)(O)OP(=O)(O)OC[C@H]1O[C@@H](n2cnc3c(N)ncnc32)[C@H](O)[C@@H]1OP(=O)(O)O [nC12-CoA]
